Reference: PubChem BioAssay (NCI)
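Briefly, cells in 96-well plates were exposed to five compound concentrations for 48 h, and endpoints were estimated by linear interpolation. GI50: concentration for 50% inhibition of growth. TGI is the concentration that stops growth completely.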

Columns and labels:
Test in all cases: NCI tumour cell line growth inhibition, 48 h
HT29 colon = test system: HT29 colon
SF-268 CNS = test system: SF-268 CNS
SR leukemia = test system: SR leukemia
SN12C renal = test system: SN12C renal
IGROV1 ovarian = test system: IGROV1 ovarian
MCF7 breast = test system: MCF7 breast
HS 578T breast = test system: HS 578T breast
OVCAR-4 ovarian = test system: OVCAR-4 ovarian
MALME-3M melanoma = test system: MALME-3M melanoma
DU-145 prostate = test system: DU-145 prostate
HL-60(TB) leukemia = test system: HL-60(TB) leukemia
BT-549 breast = test system: BT-549 breast
SF-295 CNS = test system: SF-295 CNS
SF-539 CNS = test system: SF-539 CNS
SK-OV-3 ovarian = test system: SK-OV-3 ovarian
OVCAR-8 ovarian = test system: OVCAR-8 ovarian
T-47D breast = test system: T-47D breast
UACC-62 melanoma = test system: UACC-62 melanoma
UO-31 renal = test system: UO-31 renal
LOX IMVI melanoma = test system: LOX IMVI melanoma
MDA-MB-231 breast = test system: MDA-MB-231 breast
NCI-H226 lung = test system: NCI-H226 lung
RXF 393 renal = test system: RXF 393 renal
HOP-62 NSCLC = test system: HOP-62 NSCLC
MDA-MB-435 = test system: MDA-MB-435
786-0 renal = test system: 786-0 renal
A498 renal = test system: A498 renal
OVCAR-3 ovarian = test system: OVCAR-3 ovarian
ACHN renal = test system: ACHN renal
UACC-257 melanoma = test system: UACC-257 melanoma
M14 melanoma = test system: M14 melanoma
RPMI-8226 leukemia = test system: RPMI-8226 leukemia
HOP-92 NSCLC = test system: HOP-92 NSCLC
PC-3 prostate = test system: PC-3 prostate
NCI-H522 lung = test system: NCI-H522 lung
SK-MEL-5 melanoma = test system: SK-MEL-5 melanoma
NCI/ADR-RES ovarian = test system: NCI/ADR-RES ovarian
NCI-H23 lung = test system: NCI-H23 lung
SNB-19 CNS = test system: SNB-19 CNS
KM12 colon = test system: KM12 colon
CCRF-CEM leukemia = test system: CCRF-CEM leukemia
SW-620 colon = test system: SW-620 colon
HCT-15 colon = test system: HCT-15 colon
K-562 leukemia = test system: K-562 leukemia
SNB-75 CNS = test system: SNB-75 CNS
CAKI-1 renal = test system: CAKI-1 renal
COLO 205 colon = test system: COLO 205 colon
SK-MEL-2 melanoma = test system: SK-MEL-2 melanoma
A549 NSCLC = test system: A549 NSCLC
HCC-2998 colon = test system: HCC-2998 colon
OVCAR-5 ovarian = test system: OVCAR-5 ovarian
EKVX NSCLC = test system: EKVX NSCLC
NCI-H460 lung = test system: NCI-H460 lung
SK-MEL-28 melanoma = test system: SK-MEL-28 melanoma
U251 CNS = test system: U251 CNS
HCT-116 colon = test system: HCT-116 colon
MOLT-4 leukemia = test system: MOLT-4 leukemia

SMILES: CCN(Cc1ccc(OC)cc1)c1ccc(CO)c(Cl)c1
- GI50 (HT29 colon): 2070 nM
- TGI (HT29 colon): 17.3 µM
- GI50 (SF-268 CNS): 29.1 µM
- TGI (SF-268 CNS): > 100 µM
- GI50 (SR leukemia): 24.7 µM
- TGI (SR leukemia): > 72.5 µM
- GI50 (SN12C renal): 14.5 µM
- TGI (SN12C renal): 39.3 µM
- GI50 (IGROV1 ovarian): 114 nM
- TGI (IGROV1 ovarian): 1160 nM
- GI50 (MCF7 breast): 163 nM
- TGI (MCF7 breast): 15.7 µM
- GI50 (HS 578T breast): 22.1 µM
- TGI (HS 578T breast): > 86.1 µM
- GI50 (OVCAR-4 ovarian): 369 nM
- TGI (OVCAR-4 ovarian): 15.9 µM
- GI50 (MALME-3M melanoma): 17 µM
- TGI (MALME-3M melanoma): 38.4 µM
- GI50 (DU-145 prostate): 25.6 µM
- TGI (DU-145 prostate): > 100 µM
- GI50 (HL-60(TB) leukemia): 13.8 µM
- TGI (HL-60(TB) leukemia): 59.9 µM
- GI50 (BT-549 breast): 12.7 µM
- TGI (BT-549 breast): 37.4 µM
- GI50 (SF-295 CNS): 1310 nM
- TGI (SF-295 CNS): 31.5 µM
- GI50 (SF-539 CNS): 19.9 µM
- TGI (SF-539 CNS): 46.3 µM
- GI50 (SK-OV-3 ovarian): 6.7 µM
- TGI (SK-OV-3 ovarian): 30.8 µM
- GI50 (OVCAR-8 ovarian): 14 µM
- TGI (OVCAR-8 ovarian): 52.4 µM
- GI50 (T-47D breast): 115 nM
- TGI (T-47D breast): 589 nM
- GI50 (UACC-62 melanoma): 98.6 nM
- TGI (UACC-62 melanoma): 686 nM
- GI50 (UO-31 renal): 6.18 µM
- TGI (UO-31 renal): 39.6 µM
- GI50 (LOX IMVI melanoma): 13.2 µM
- TGI (LOX IMVI melanoma): 27.4 µM
- GI50 (MDA-MB-231 breast): 18.9 µM
- TGI (MDA-MB-231 breast): 61.3 µM
- GI50 (NCI-H226 lung): 51.9 nM
- TGI (NCI-H226 lung): 182 nM
- GI50 (RXF 393 renal): 7.35 µM
- TGI (RXF 393 renal): 28.3 µM
- GI50 (HOP-62 NSCLC): 2050 nM
- TGI (HOP-62 NSCLC): 29.4 µM
- GI50 (MDA-MB-435): 16.7 µM
- TGI (MDA-MB-435): 43.6 µM
- GI50 (786-0 renal): 10.6 µM
- TGI (786-0 renal): 45.4 µM
- GI50 (A498 renal): 30.6 nM
- TGI (A498 renal): 168 nM
- GI50 (OVCAR-3 ovarian): 636 nM
- TGI (OVCAR-3 ovarian): 6.19 µM
- GI50 (ACHN renal): 19.3 µM
- TGI (ACHN renal): > 81.5 µM
- GI50 (UACC-257 melanoma): 124 nM
- TGI (UACC-257 melanoma): 312 nM
- GI50 (M14 melanoma): 16.1 µM
- TGI (M14 melanoma): 58.3 µM
- GI50 (RPMI-8226 leukemia): 6.23 µM
- TGI (RPMI-8226 leukemia): 46.1 µM
- GI50 (HOP-92 NSCLC): 2170 nM
- TGI (HOP-92 NSCLC): 20.7 µM
- GI50 (PC-3 prostate): 21.7 µM
- TGI (PC-3 prostate): > 81.8 µM
- GI50 (NCI-H522 lung): 16.6 µM
- TGI (NCI-H522 lung): 46.7 µM
- GI50 (SK-MEL-5 melanoma): 2660 nM
- TGI (SK-MEL-5 melanoma): 18.6 µM
- GI50 (NCI/ADR-RES ovarian): 15 µM
- TGI (NCI/ADR-RES ovarian): 49.6 µM
- GI50 (NCI-H23 lung): 13.7 µM
- TGI (NCI-H23 lung): 60 µM
- GI50 (SNB-19 CNS): 26.8 µM
- TGI (SNB-19 CNS): > 100 µM
- GI50 (KM12 colon): 18.3 µM
- TGI (KM12 colon): 44.7 µM
- GI50 (CCRF-CEM leukemia): 23.9 µM
- TGI (CCRF-CEM leukemia): > 83.3 µM
- GI50 (SW-620 colon): 1040 nM
- TGI (SW-620 colon): > 100 µM
- GI50 (HCT-15 colon): 12.2 µM
- TGI (HCT-15 colon): > 100 µM
- GI50 (K-562 leukemia): 2330 nM
- TGI (K-562 leukemia): > 100 µM
- GI50 (SNB-75 CNS): 13.9 µM
- TGI (SNB-75 CNS): 45.6 µM
- GI50 (CAKI-1 renal): 1140 nM
- TGI (CAKI-1 renal): > 36.3 µM
- GI50 (COLO 205 colon): 451 nM
- TGI (COLO 205 colon): 3.31 µM
- GI50 (SK-MEL-2 melanoma): 3.79 µM
- TGI (SK-MEL-2 melanoma): 20.2 µM
- GI50 (A549 NSCLC): 2620 nM
- TGI (A549 NSCLC): 35.9 µM
- GI50 (HCC-2998 colon): 12.9 µM
- TGI (HCC-2998 colon): 40.4 µM
- GI50 (OVCAR-5 ovarian): 162 nM
- TGI (OVCAR-5 ovarian): 636 nM
- GI50 (EKVX NSCLC): 20.5 µM
- TGI (EKVX NSCLC): > 83.3 µM
- GI50 (NCI-H460 lung): 317 nM
- TGI (NCI-H460 lung): 14.6 µM
- GI50 (SK-MEL-28 melanoma): 16.3 µM
- TGI (SK-MEL-28 melanoma): 36.6 µM
- GI50 (U251 CNS): 966 nM
- TGI (U251 CNS): 26.6 µM
- GI50 (HCT-116 colon): 87.5 nM
- TGI (HCT-116 colon): 10.8 µM
- GI50 (MOLT-4 leukemia): 21.6 µM
- TGI (MOLT-4 leukemia): 59.7 µM
